In patent US12612354B2, “Cyclopentenones derivatives and their use as antibiotics” (Centre National de la Recherche Scientifique (CNRS), priority 2020, dated 2026):
Converted amounts (≈) assume the structure as drawn. Where two headings read alike, the source gives them in different places.

Columns and labels:
Type in all cases: cell-based
[1] = system: Escherichia coli ATCC 25922; experiment: Kirby-Bauer disk diffusion susceptibility test (inhibition zone); details: for inhibition of growth at 100 µg/disc: ATCC25922, 24 h, 100 μg of compound; for inhibition activity (inhibition zone): 12.5, 25, 50 and 100 μg per disc, FIG. 4
Method: (§1) FIG. 4: Kirby-Bauer Disk diffusion susceptibility test on Escherichia coli ATCC 25922 with compounds Ia and Ib at 12.5, 25, 50 and 100 μg and the reference gentamicin at 10 μg; left: graph representing the diameter of the inhibition zone as a function of each sample; right: photo of the petri dish illustrating the inhibition zones with Ia at 12.5, 25, 50 and 100 μg.
(§2) Pathogenic bacteria were revived by streaking bacteria on 100 mm Petri dishes containing the suitable medium recommended by ATCC protocol, overnight at 30 to 37° C.: Luria-Bertani Broth (LB, Difco, Thermo Fisher Scientific Inc.), Tryptic Soy Broth (TSB, Difco, Thermo Fisher Scientific Inc.), Nutrient Broth (NB, Difco, Thermo Fisher Scientific Inc.), supplemented with 2% of agar (Granulated Agar, Difco, Thermo Fisher Scientific Inc.).
(§3) For each pathogen, several colonies were collected with a loop and transferred in 5 ml of sterile NB medium and incubated on a rotary shaker (130 rpm) overnight at 30 to 37° C.
(§4) 150 mm Nutrient Broth Agar plates were swabbed with inocula and kept for 15 min for absorption. Pre-sterilized six-millimeter Whatman No. 1 discs were placed in the Petri dishes and 12.5, 25, 50 and 100 μg of the test compounds in DMSO (10 mg/ml) were applied to the sterile disc papers. The standard drug gentamycin (10 μg) was used as a positive reference standard to determine the sensitivity of each bacterial species and DMSO as a negative control. Then the plates were incubated at 30° or 37° C. for 24 h and inhibition diameters were measured.
Compounds Ia to Ic have also been tested on the following pathogenic bacteria in order to evaluate their inhibition efficacy by the Petri dish inhibition zone method: • Staphylococcus aureus ATCC 25923—Gram-positive (compounds Ia, Ib and Ic tested) • Enterobacter cloacae ATCC 13047—Gram-negative (compounds Ia and Ib tested) • Acinetobacter baumannii ATCC 19606—Gram-negative (compounds Ib and Ic tested) • Escherichia coli ATCC 25922—Gram-negative (compounds Ia and Ib tested)
This technique enables to visualize the potential for inhibiting the growth of target pathogenic bacteria. A dose-response study at 12.5, 25, 50 and 100 μg of each compound has been carried out, comparing the inhibition zones with 10 μg gentamicin. […] Best results are obtained for Gran negative bacteria, especially Enterobacter cloacae as represented on FIG. 2.
Compounds Ib, Ic, Ij, Ik, Il, Im, Ih, Ig, Ii, Id and If have also been tested on the following pathogenic bacteria in order to evaluate their inhibition efficacy by the Petri dish inhibition zone method: • Micrococcus luteus ATCC10240; • Bacillus subtilis ATCC6633; • Escherichia coli ATCC 25922.
The percentage of inhibition growth at 100 μg of each tested compound has been determined.

[2] = system: Bacillus subtilis ATCC6633; experiment: Petri dish inhibition zone method, % inhibition of growth; details: 24 h, 100 μg of compound
Method: (§5) Pathogenic bacteria were revived by streaking bacteria on 100 mm Petri dishes containing the suitable medium recommended by ATCC protocol, overnight at 30 to 37° C.: Luria-Bertani Broth (LB, Difco, Thermo Fisher Scientific Inc.), Tryptic Soy Broth (TSB, Difco, Thermo Fisher Scientific Inc.), Nutrient Broth (NB, Difco, Thermo Fisher Scientific Inc.), supplemented with 2% of agar (Granulated Agar, Difco, Thermo Fisher Scientific Inc.). For each pathogen, several colonies were collected with a loop and transferred in 5 ml of sterile NB medium and incubated on a rotary shaker (130 rpm) overnight at 30 to 37° C. 150 mm Nutrient Broth Agar plates were swabbed with inocula and kept for 15 min for absorption. Pre-sterilized six-millimeter Whatman No. 1 discs were placed in the Petri dishes and 12.5, 25, 50 and 100 μg of the test compounds in DMSO (10 mg/ml) were applied to the sterile disc papers. The standard drug gentamycin (10 μg) was used as a positive reference standard to determine the sensitivity of each bacterial species and DMSO as a negative control. Then the plates were incubated at 30° or 37° C. for 24 h and inhibition diameters were measured. Compounds Ib, Ic, Ij, Ik, Il, Im, Ih, Ig, Ii, Id and If have also been tested on the following pathogenic bacteria in order to evaluate their inhibition efficacy by the Petri dish inhibition zone method: • Micrococcus luteus ATCC10240; • Bacillus subtilis ATCC6633; • Escherichia coli ATCC 25922. The percentage of inhibition growth at 100 μg of each tested compound has been determined.

[3] = system: Micrococcus luteus ATCC10240; experiment: as above; details: 24 h, 100 μg of compound
Method: as §5

[4] = system: Staphylococcus aureus ATCC 25923; experiment: Minimum inhibitory concentration (MIC), microbroth dilution assay; details: Mueller-Hinton broth
Method: as §2, with “Inc.)” for “Inc.).”
(§6) For each pathogen, several colonies were collected with a loop and transfered in 10 ml of sterile Mueller-Hinton broth (Sigma) medium and incubated on a rotary shaker (130 rpm) […] at 30 to 37° C. The OD at 600 nm was measured and adjusted to 0.5 OD, then the solution was diluted 400-fold to have the appropriate inoculum
(§7) The antimicrobial susceptibility was carried out by microbroth dilution assay. Tests were performed on 96-well plates with 100 μL of Mueller-Hinton broth (Sigma) medium final volume and a final bacterial concentration of 5.10^5 CUF/ml. The tested compounds were solubilized in dimethyl sulfoxide (DMSO) given 10 mg/mL (then expressed in μM) stock solution. The stock solutions were diluted from 100 μg/ml to 0.195 μg/ml for testing.
(§8) Compounds Ia to Ie have also been tested on Staphylococcus aureus ATCC 25923 strain and Staphylococcus aureus BAA-1766 (MRSA) strain (both Gram-positive) by using the screening method of the measurement of MIC (minimum inhibitory concentration).
(§9) This technique enables to determine the minimum concentration that causes total inhibition of the growth of the target pathogen.

[5] = system: Staphylococcus aureus BAA-1766 (MRSA); experiment: as above; details: S. aureus BAA-1766 (MRSA), Mueller-Hinton broth
Method: as §2, with “Inc.)” for “Inc.).”
as §6, §7, §8, §9

[6] = system: Staphylococcus aureus ATCC 25923; experiment: Kirby-Bauer disk diffusion susceptibility test (inhibition zone); details: S. aureus ATCC 25923; 12.5, 25, 50 and 100 μg per disc; FIG. 1
Method: as §1, with “FIG. 1:” for “FIG. 4:”, “on Staphylococcus aureus” for “on Escherichia coli”, “ATCC 25923” for “ATCC 25922”, “compounds Ia, Ib” for “compounds Ia”, “and Ic” for “and Ib”, “with Ic” for “with Ia”
as §2, §3, §4
Compounds Ia to Ic have also been tested on the following pathogenic bacteria in order to evaluate their inhibition efficacy by the Petri dish inhibition zone method: • Staphylococcus aureus ATCC 25923—Gram-positive (compounds Ia, Ib and Ic tested) • Enterobacter cloacae ATCC 13047—Gram-negative (compounds Ia and Ib tested) • Acinetobacter baumannii ATCC 19606—Gram-negative (compounds Ib and Ic tested) • Escherichia coli ATCC 25922—Gram-negative (compounds Ia and Ib tested) […]

[7] = system: Acinetobacter baumannii ATCC 19606; experiment: as above; details: 12.5, 25, 50 and 100 μg per disc, FIG. 3
Method: as §1, with “FIG. 3:” for “FIG. 4:”, “on Acinetobacter baumanii” for “on Escherichia coli”, “ATCC 19606” for “ATCC 25922”, “compounds Ib” for “compounds Ia”, “and Ic” for “and Ib”, “with Ib and Ic” for “with Ia”
as §2, §3
as §4, with “The standard drug gentamycin (10 μg) was used as a positive reference standard to determine the sensitivity of each bacterial species and DMSO as a negative control.” left out, “measured. […]” for “measured.”

[8] = system: Enterobacter cloacae ATCC 13047; experiment: as above; details: 12.5, 25, 50 and 100 μg per disc, FIG. 2
Method: as §1, with “2:” for “4:”, “Enterobacter cloacae” for “Escherichia coli”, “13047” for “25922”
as §2, §3
as §4, with “The standard drug gentamycin (10 μg) was used as a positive reference standard to determine the sensitivity of each bacterial species and DMSO as a negative control.” left out, “measured. […]” for “measured.”

[9] = Staphylococcus aureus, ATCC25923, S. aureus ATCC 25923, read-out: MIC

## COc1ccc(C2C(=O)C=C[C@@H]2O)cc1 (mixture of isomers) [Ij]
[1]
  inhibition of growth at 100 µg/disc: 62%
[2]
  inhibition of growth at 100 µg/disc: 61%
[3]
  inhibition of growth at 100 µg/disc: 39%

## O=C1C=C[C@H](O)[C@H]1c1ccccc1Cl (racemic) [Ic]
[4]; S. aureus ATCC 25923
  MIC: 6.26 µg/mL (≈ 30 µM)
[4]; [9]
  MIC: 6.25 µg/mL (≈ 30 µM)
[5]
  MIC: 37.5 µg/mL (≈ 180 µM)
[1]
  inhibition of growth at 100 µg/disc: 35%
[2]
  inhibition of growth at 100 µg/disc: 31%
[3]
  inhibition of growth at 100 µg/disc: 33%
[6]
  inhibition activity (inhibition zone): inhibition activity
[7]
  inhibition activity (inhibition zone): inhibition activity

## COc1cccc(C2C(=O)C=C[C@@H]2O)c1 (mixture of isomers) [Ik]
[1]
  inhibition of growth at 100 µg/disc: 42%
[2]
  inhibition of growth at 100 µg/disc: 48%
[3]
  inhibition of growth at 100 µg/disc: 23%

## O=C1C=C[C@H](O)[C@H]1c1ccc(Cl)cc1 (racemic) [Ib]
[4]; [9]
  MIC: 12.5 µg/mL (≈ 59.9 µM)
[5]
  MIC: 18.8 µg/mL (≈ 89.9 µM)
[1]
  inhibition activity (inhibition zone): inhibition activity
  inhibition of growth at 100 µg/disc: 60%
[2]
  inhibition of growth at 100 µg/disc: 51%
[3]
  inhibition of growth at 100 µg/disc: 68%
[6]
  inhibition activity (inhibition zone): inhibition activity
[8]
  inhibition activity (inhibition zone): inhibition activity
[7]
  inhibition activity (inhibition zone): inhibition activity

## COc1ccc([C@H]2C(=O)C=C[C@@]2(O)CO)cc1 (racemic) [Ih]
[1]
  inhibition of growth at 100 µg/disc: 55%
[2]
  inhibition of growth at 100 µg/disc: 0%
[3]
  inhibition of growth at 100 µg/disc: 0%

## O=C1C=C[C@H](O)C1c1cccc2ccccc12 (mixture of isomers) [Im]
[1]
  inhibition of growth at 100 µg/disc: 47%
[2]
  inhibition of growth at 100 µg/disc: 56%
[3]
  inhibition of growth at 100 µg/disc: 51%

## CC(=O)O[C@H]1C=CC(=O)[C@@H]1c1ccccc1 (racemic) [Ie]
[4]; [9]
  MIC: 6.25 µg/mL (≈ 28.9 µM)
[5]
  MIC: 6.25 µg/mL (≈ 28.9 µM)

## O=C1C=C[C@H](O)C1c1ccc2ccccc2c1 (mixture of isomers) [Il]
[1]
  inhibition of growth at 100 µg/disc: 40%
[2]
  inhibition of growth at 100 µg/disc: 57%
[3]
  inhibition of growth at 100 µg/disc: 50%

## O=C1C=C[C@@](O)(CO)[C@H]1c1ccc(Cl)cc1 (racemic) [Id]
[4]; [9]
  MIC: 12 µg/mL (≈ 50.3 µM)
[5]
  MIC: 12 µg/mL (≈ 50.3 µM)
[1]
  inhibition of growth at 100 µg/disc: 45%
[2]
  inhibition of growth at 100 µg/disc: 30%
[3]
  inhibition of growth at 100 µg/disc: 0%

## O=C1C=C[C@H](O)[C@H]1c1ccccc1 (relative stereo) [Ia, (4S*,5R*)-4-hydroxy-5-phenyl-cyclopent-2-en-1-one]
[4]; [9]
  MIC: 25 µg/mL (≈ 144 µM)
[5]
  MIC: > 50 µg/mL
[1]
  inhibition activity (inhibition zone): inhibition activity
[6]
  inhibition activity (inhibition zone): inhibition activity
[8]
  inhibition activity (inhibition zone): inhibition activity

## O=C1C=C[C@@](O)(CO)[C@H]1c1ccc(F)cc1 (racemic) [Ig]
[1]
  inhibition of growth at 100 µg/disc: 55%
[2]
  inhibition of growth at 100 µg/disc: 18%
[3]
  inhibition of growth at 100 µg/disc: 0%

## O=C1C=C[C@@](O)(CO)[C@H]1c1ccc2c(c1)OCO2 (racemic) [Ii]
[1]
  inhibition of growth at 100 µg/disc: 45%
[2]
  inhibition of growth at 100 µg/disc: 0%
[3]
  inhibition of growth at 100 µg/disc: 0%

## O=C1C=C[C@@](O)(CO)[C@H]1c1ccccc1 (racemic) [If]
[1]
  inhibition of growth at 100 µg/disc: 57%
[2]
  inhibition of growth at 100 µg/disc: 0%
[3]
  inhibition of growth at 100 µg/disc: 21%
